SMILES strings stand for the structures.

The test relates to Arabidopsis Thaliana Columbia (Col 0) seeds. Description: Germination of Arabidopsis seeds in the dark, hypocotyledon length. The class given is in vivo. The conditions noted are these: 10 days in the dark. As for the experimental part: Batches of 25 seeds of Arabidopsis Thaliana Columbia (Col 0) were made to germinate in a suitable culture medium consisting of 0.5 ×MS at pH 5.7, containing 1% sucrose, 1×Vitamin B5 Gamborg, and 0.8% phyto-agar in the presence of the 1,2,5,6-tetrahydro-(11H)benzo[c]quinolizin-3-one inhibitor at the concentrations of 0, 0.01, 0.1, 1 and 10 micromolar. After two hours of treatment in light, the seeds were covered with three layers of aluminium foil and kept at 21° C. in a growth chamber. After 10 days in the dark, the length of the hypocotyledons was measured. […] A reduction of 50% in the hypocotyledons as compared to the controls was found for the seeds treated with a concentration of 0.1 micromolar of inhibitor.

Take `O=C1C=C2CCc3ccccc3N2CC1` [1,2,5,6-tetrahydro-(11H)benzo[c]quinolizin-3-one]: under “0.01, 0.1, 1 and 10 micromolar, untreated approximately 15-16 mm”, the “length of the hypocotyledons versus inhibitor concentration” value was “progressively shorter as the concentration of inhibitor used was increased”. Besides, where the note is “0.1 micromolar inhibitor in culture medium, 21° C., batches of 25 seeds”, the “reduction in the hypocotyledons as compared to the controls” value was 50%.

Values taken from patent US6514912B1, “Use of benzo[C]quinolizine derivatives as plant growth regulators” (Applied Research Systems ARS Holding N.V., priority 1998, dated 2003).
